# Assay results taken from paper PMC6142817, “New Urea Derivatives Are Effective Anti-senescence Compounds Acting Most Likely via a Cytokinin-Independent Mechanism” (Frontiers in Plant Science, 2018).
# Where two headings read alike, the source gives them in different places.
# What was measured:
# [1] = system: excised wheat leaves (chlorophyll degradation in the dark); assay: Wheat leaf senescence assay (WLSA); type: cell-based, Triticum aestivum cv. Hereward
# Description: (§1) Tobacco callus, Amaranthus and Wheat leaf senescence assay (WLSA) were performed as described by Holub et al. ([1998]) including the number of repetitions in each assay. An exception to the published protocols was that the tobacco callus assay was performed in 6-well microtiter plates (with each well containing 3 ml of Murashige Skoog medium into which 0.1 g of callus was added). Each compound was tested at least twice in each assay and in a wider concentration range to obtain concentration-dependent activity curves. IC50 means compound concentration at which chlorophyll degradation is inhibited by 50% and EC50 means half the maximal effective concentration.
# (§2) Amaranthus assay evaluates the induction of betacyanin synthesis in Amaranthus (Amaranthus caudatus var. atropurpurea) cotyledons, which is induced by cytokinins (Bamberger and Mayer, [1960]). The WLSA evaluates the ability of compounds to retard chlorophyll degradation in excised wheat leaves that are kept in the dark. The wheat leaf segments (Triticum aestivum cv. Hereward) were used in all other experiments requiring wheat. Arabidopsis (Arabidopsis thaliana) leaf senescence assay was performed with detached leaves from 30-day-old plants, which were grown in soil in phytotron under standard conditions (Rivero et al., [2014]). Four leaves of a combined weight of 60 mg were placed in a six-well plate and stored in the dark for 12 days at 22°C. The leaves (except the fresh control leaves) floated on water solutions of tested compounds. Fresh control leaves were leaves detached from a plant and immediately used for chlorophyll determination. The duration of the senescence assay of Arabidopsis leaves was prolonged to highlight the difference in chlorophyll content between a negative control and treatments. Arabidopsis leaves were losing chlorophyll more slowly than wheat leaves. Chlorophyll extraction and spectrophotometric determination of its content was done according to Holub et al. ([1998]).
# [2] = system: Amaranthus caudatus cotyledon-hypocotyl explants; assay: Amaranthus bioassay (betacyanin synthesis); type: cell-based, Amaranthus caudatus var. atropurpurea
# Description: as §1, §2
# [3] = system: cytokinin-dependent tobacco callus; assay: Tobacco callus bioassay; type: cell-based; conditions: for inhibition of callus growth at the highest concentration tested: 100 μM
# Description: as §1
# ARR5:GUS reporter gene = assay: Arabidopsis ARR5:GUS reporter gene assay; type: in vivo, Arabidopsis thaliana; conditions: for ARR5:GUS activity, % of BA activity: 1 μM BA = 100%; for EC50: Arabidopsis thaliana, read-out: ARR5:GUS activation EC50; for ARR5:GUS activation (in words): in vivo
# Description: Transgenic Arabidopsis plants (Arabidopsis thaliana (L.) Heynh. accession Wassilewskija) harboring the GUS reporter gene (gene for β-glucuronidase) fused to 1.6 kb of the ARR5 (PARR5−GUS) gene promoter (D'Agostino et al., [2000]) were kindly provided by professor Thomas Schmülling. The assay was performed according to Romanov et al. ([2002]). β-Glucuronidase (GUS) activity was quantitatively determined by measuring fluorescence of 4-methylumbelliferyl (MU) on a Synergy H4 hybrid reader (Biotek, Winooski, VT) with excitation and emission wavelengths of 365 and 445 nm, respectively. GUS specific activity was determined as nmol MU × mg protein^−1 × h^−1. This was calculated by dividing the relative fluorescence units (obtained per hour) by protein content of the same sample. Protein extraction was done as described by Romanov et al. ([2002]) but its content was determined using a bicinchoninic acid reagent (Smith et al., [1985]). Finally we expressed the GUS activity in samples as a relative percentage, the activity of 1 μM BA being set as 100% activation. The concentration-dependent activity curves and EC50 values (for TDZ, tZ, BA, TD-iP, and TD-tZ) were constructed using Scion image program.
# CRE1/AHK4 [4] = biological target: T1, CRE1/AHK4 (Arabidopsis thaliana, UniProt Q9C5U0); conditions: read-out: CRE1/AHK4 receptor activation EC50 (previous study); ref Nisler et al., [2010]; cited from earlier work
# AHK3 = biological target: T2, AHK3 (Arabidopsis thaliana, UniProt Q9C5U1); assay: Cytokinin receptor activation assay in E. coli (AHK3); type: cell-based
# T2 construct: expressed in transfected cells; host or cells: Escherichia coli strain KMI001, plasmid pSTV28-AHK3
# T2 sequence (Q9C5U1 1-1036): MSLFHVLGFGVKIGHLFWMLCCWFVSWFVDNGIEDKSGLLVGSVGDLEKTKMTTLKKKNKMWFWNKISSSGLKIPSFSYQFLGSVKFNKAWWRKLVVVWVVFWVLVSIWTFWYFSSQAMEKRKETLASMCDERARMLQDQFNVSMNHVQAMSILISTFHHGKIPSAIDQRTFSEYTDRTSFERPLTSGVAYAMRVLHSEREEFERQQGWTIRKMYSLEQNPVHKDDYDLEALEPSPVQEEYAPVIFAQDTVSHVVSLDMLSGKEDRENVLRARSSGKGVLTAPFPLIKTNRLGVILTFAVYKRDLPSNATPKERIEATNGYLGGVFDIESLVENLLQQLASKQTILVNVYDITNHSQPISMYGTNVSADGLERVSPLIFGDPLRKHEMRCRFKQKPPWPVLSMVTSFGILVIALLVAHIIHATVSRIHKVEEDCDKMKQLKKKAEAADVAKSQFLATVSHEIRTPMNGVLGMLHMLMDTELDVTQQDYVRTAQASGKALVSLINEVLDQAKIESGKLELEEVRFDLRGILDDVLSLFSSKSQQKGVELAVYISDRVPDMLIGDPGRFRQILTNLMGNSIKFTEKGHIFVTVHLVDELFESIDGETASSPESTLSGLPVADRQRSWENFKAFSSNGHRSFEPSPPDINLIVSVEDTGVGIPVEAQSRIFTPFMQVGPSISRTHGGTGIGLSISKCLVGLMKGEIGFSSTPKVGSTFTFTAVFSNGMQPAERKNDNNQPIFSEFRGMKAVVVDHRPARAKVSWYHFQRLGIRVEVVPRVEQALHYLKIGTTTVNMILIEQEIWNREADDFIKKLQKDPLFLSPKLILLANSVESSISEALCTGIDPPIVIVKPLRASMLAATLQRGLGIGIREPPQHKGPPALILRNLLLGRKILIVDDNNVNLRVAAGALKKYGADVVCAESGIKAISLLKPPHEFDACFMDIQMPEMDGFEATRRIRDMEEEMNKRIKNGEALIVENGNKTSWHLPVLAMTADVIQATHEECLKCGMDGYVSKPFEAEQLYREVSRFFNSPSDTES
# Source text: (§3) The activity of this enzyme is finally measured in the assay and corresponds to the ability of the tested compound to activate this cytokinin receptor. Both assays were done at least twice and the presented graphs are the most representative examples.
# CRE1/AHK4 [5] = biological target: T1, CRE1/AHK4; assay: Cytokinin receptor activation assay in E. coli (CRE1/AHK4); type: cell-based; parameters: expressed in transfected cells; host or cells: Escherichia coli strain KMI001, plasmid pIN-IIIAHK4
# Source text: as §3
# [6] = system: excised wheat leaves (chlorophyll degradation in the dark); conditions: read-out: WLSA IC50; ref Gajdošová et al., [2011]; cited from earlier work
# [7] = system: detached Arabidopsis leaves (chlorophyll loss in the dark); assay: Arabidopsis leaf senescence assay; type: cell-based, Arabidopsis thaliana; conditions: 1 μM, 12 days in the dark
# Source text: as §2
# [8] = Triticum aestivum, 120 h, detached wheat leaves in the dark, 5 days, concentration at which chlorophyll degradation is inhibited by 50%, read-out: Senescence bioassay (IC50)
# [9] = betacyanin synthesis, N.A. = not active
# [10] = half the maximal effective concentration, N.A. = not active
# [11] = detached wheat leaves in the dark, 5 days, concentration at which chlorophyll degradation is inhibited by 50%, read-out: Senescence bioassay (IC50)
# [12] = Nicotiana tabacum, half the maximal effective concentration, N.A. = not active, read-out: Tobacco callus bioassay (EC50)
# [13] = Triticum aestivum, 120 h, read-out: Senescence bioassay (IC50, μM)
# [14] = Amaranthus caudatus, read-out: Amaranthus bioassay (EC50, μM)
# [15] = Nicotiana tabacum, read-out: Tobacco callus bioassay (EC50, μM)
# [16] = Amaranthus caudatus, betacyanin synthesis, N.A. = not active, read-out: Amaranthus bioassay (EC50)
# [17] = E. coli bacterial receptor assay, read-out: AHK3 receptor activation EC50
# [18] = E. coli bacterial receptor assay, read-out: CRE1/AHK4 receptor activation EC50
# T1 sequence (Q9C5U0 whole entry): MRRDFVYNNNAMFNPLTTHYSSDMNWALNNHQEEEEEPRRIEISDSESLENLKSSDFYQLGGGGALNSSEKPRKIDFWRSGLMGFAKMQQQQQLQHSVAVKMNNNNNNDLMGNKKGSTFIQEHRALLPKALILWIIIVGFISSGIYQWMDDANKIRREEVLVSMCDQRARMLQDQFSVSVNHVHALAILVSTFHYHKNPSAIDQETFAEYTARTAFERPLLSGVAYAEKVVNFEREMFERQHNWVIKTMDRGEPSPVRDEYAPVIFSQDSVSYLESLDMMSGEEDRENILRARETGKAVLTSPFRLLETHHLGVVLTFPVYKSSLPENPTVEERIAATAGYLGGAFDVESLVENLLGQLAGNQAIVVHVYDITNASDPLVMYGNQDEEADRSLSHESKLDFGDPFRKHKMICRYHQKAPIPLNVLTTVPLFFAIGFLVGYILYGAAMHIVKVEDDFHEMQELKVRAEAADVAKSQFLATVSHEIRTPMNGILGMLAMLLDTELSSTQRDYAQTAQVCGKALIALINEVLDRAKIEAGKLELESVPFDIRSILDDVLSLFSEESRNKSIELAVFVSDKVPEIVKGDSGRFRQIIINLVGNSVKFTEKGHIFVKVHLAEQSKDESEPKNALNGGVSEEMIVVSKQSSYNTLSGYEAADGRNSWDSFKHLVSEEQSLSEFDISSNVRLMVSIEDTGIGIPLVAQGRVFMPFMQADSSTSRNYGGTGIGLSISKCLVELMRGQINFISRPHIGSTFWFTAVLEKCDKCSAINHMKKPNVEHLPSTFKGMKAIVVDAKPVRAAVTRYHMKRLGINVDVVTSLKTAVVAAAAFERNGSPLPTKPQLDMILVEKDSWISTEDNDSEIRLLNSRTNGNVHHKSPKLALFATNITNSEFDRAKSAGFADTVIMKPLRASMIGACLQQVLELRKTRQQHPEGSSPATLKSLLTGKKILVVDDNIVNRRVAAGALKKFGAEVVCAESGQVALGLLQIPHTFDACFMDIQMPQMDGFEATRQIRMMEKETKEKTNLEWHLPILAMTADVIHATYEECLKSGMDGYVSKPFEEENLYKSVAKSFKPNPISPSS
compound,measurement,setting,value
COCCN(C)C(=O)Nc1cnns1 [Compound 6],IC50,[1]; [8],25 µM
same,"Amaranthus bioassay (EC50, μM)",[2]; [9],inactive
same,"Tobacco callus bioassay (EC50, μM)",[3]; [10],completely inactive
"N^6-isopentenyladenine [iP, reference compound]",IC50,[1]; [11],> 200 µM
same,EC50,"[2]; betacyanin synthesis, N.A. = not active, read-out: Amaranthus bioassay (EC50)",2 µM
same,EC50,"[3]; half the maximal effective concentration, N.A. = not active, read-out: Tobacco callus bioassay (EC50)",0.013 µM
CC(O)CNC(=O)Nc1cnns1 (stereo not drawn) [Compound 5],"Amaranthus bioassay (EC50, μM)",[2]; [9],inactive
same,EC50,[3]; [12],7.1 µM
same,"ARR5:GUS activity, % of BA activity",ARR5:GUS reporter gene; compound at 10 μM,55–65%
"C/C(=C\CNc1ncnc2[nH]cnc12)CO [tZ, trans-zeatin, reference compound]",IC50,[1]; [13],30 µM
same,EC50,[2]; [14],0.9 µM
same,EC50,CRE1/AHK4 [4],200 nM
same,EC50,AHK3,66 nM
same,EC50,[3]; [15],0.012 µM
same,EC50,CRE1/AHK4 [5],0.35 µM
same,EC50,ARR5:GUS reporter gene,9 nM
COCCCNC(=O)Nc1cnns1 [Compound 4],IC50,[1]; [8],19 µM
same,EC50,[2]; [16],16.7 µM
same,EC50,[3]; [12],2.2 µM
O=C(NCCO)Nc1cnns1 [Compound 1],IC50,[1]; [8],26 µM
same,"Amaranthus bioassay (EC50, μM)",[2]; [9],inactive
same,EC50,[3]; [12],15 µM
C=CCNC(=O)Nc1cnns1 [Compound 13],IC50,[1]; [8],< 10 µM
same,IC50,[1]; [11],7.1 µM
same,EC50,[2]; [16],14.2 µM
same,EC50,[3]; [12],1.6 µM
same,"ARR5:GUS activity, % of BA activity",ARR5:GUS reporter gene; compound at 10 μM,55–65%
"C/C(=C/CNc1ncnc2nc[nH]c12)CO [cis-zeatin, reference compound]","IC50 in WLSA, fold higher than IC50 of ASES",[1],300 fold
same,"IC50 in WLSA, fold higher than IC50 of tZ",[1],10 fold
same,IC50,[6],~300 µM
O=C(NCCCO)Nc1cnns1 [Compound 2],IC50,[1]; [8],< 10 µM
same,IC50,[1]; [11],8 µM
same,EC50,[2]; [16],75.5 µM
same,EC50,[3]; [12],7 µM
"CC(C)=CCNC(=O)Nc1cnns1 [TD-iP, N-2-isopentenyl-N′-1,2,3-thiadiazol-5-yl-urea]",IC50,[1]; [8],93 µM
same,EC50,[2]; [16],1.1 µM
same,EC50,AHK3; [17],1400 nM
same,inhibition of callus growth at the highest concentration tested,[3],did not inhibit the growth of callus
same,EC50,[3]; [12],0.017 µM
same,EC50,CRE1/AHK4 [5]; [18],9.4 µM
same,EC50,ARR5:GUS reporter gene; transgenic Arabidopsis plants,65 nM
COC(CNC(=O)Nc1cnns1)OC [Compound 8],EC50,[2]; [16],16.7 µM
same,EC50,[3]; [12],2.4 µM
same,"ARR5:GUS activity, % of BA activity",ARR5:GUS reporter gene; compound at 10 μM,55–65%
O=C(NCCCl)Nc1cnns1 [Compound 14],IC50,[1]; [13],14 µM
same,EC50,[2]; [14],10.8 µM
same,EC50,AHK3,15000 nM
same,EC50,[3]; [15],0.87 µM
same,"Tobacco callus bioassay (EC50, μM)",[3]; [10],sub-micromolar range
same,"ARR5:GUS activity, % of BA activity",ARR5:GUS reporter gene; compound at 1 μM,65%
"c1ccc(CNc2ncnc3nc[nH]c23)cc1 [BA, N^6-benzyladenine, reference compound]",IC50,[1]; [8],> 100 µM
same,EC50,[2]; [16],0.75 µM
same,EC50,[3]; [12],0.06 µM
same,% more of chlorophyll retained than DMSO (negative control),[7],65%
same,EC50,ARR5:GUS reporter gene; transgenic Arabidopsis plants,76 nM
"CC(CO)CCNc1ncnc2nc[nH]c12 (stereo not drawn) [DHZ, dihydrozeatin, reference compound]",IC50,[1]; [8],> 100 µM
same,EC50,[2]; [16],10 µM
same,EC50,[3]; [12],0.065 µM
CCOCCNC(=O)Nc1cnns1 [Compound 11],IC50,[1]; [8],83 µM
same,EC50,[2]; [16],> 100 µM
same,"Tobacco callus bioassay (EC50, μM)",[3]; [10],completely inactive
same,ARR5:GUS activation (in words),ARR5:GUS reporter gene,completely inactive
COCCN(CCOC)C(=O)Nc1cnns1 [Compound 7],IC50,[1]; [8],62 µM
same,"Amaranthus bioassay (EC50, μM)",[2]; [9],inactive
same,"Tobacco callus bioassay (EC50, μM)",[3]; [10],completely inactive
same,ARR5:GUS activation (in words),ARR5:GUS reporter gene,completely inactive
"C/C(=C\CNC(=O)Nc1cnns1)CO [TD-tZ, N-[(E)-4-hydroxy-3-methyl-but-2-enyl]-N′-1,2,3-thiadiazol-5-yl-urea]",IC50,[1]; [8],13 µM
same,EC50,[2]; [16],1.5 µM
same,EC50,AHK3; [17],190 nM
same,inhibition of callus growth at the highest concentration tested,[3],did not inhibit the growth of callus
same,EC50,[3]; [12],0.01 µM
same,EC50,CRE1/AHK4 [5]; [18],32 µM
same,EC50,ARR5:GUS reporter gene; transgenic Arabidopsis plants,520 nM
COCC(C)NC(=O)Nc1cnns1 (stereo not drawn) [Compound 10],IC50,[1]; [8],< 10 µM
same,IC50,[1]; [11],8.6 µM
same,EC50,[2]; [16],26.5 µM
same,EC50,[3]; [12],3.1 µM
CN(C)CCNC(=O)Nc1cnns1 [Compound 15],"Amaranthus bioassay (EC50, μM)",[2]; [9],inactive
same,"Tobacco callus bioassay (EC50, μM)",[3]; [10],completely inactive
same,ARR5:GUS activation (in words),ARR5:GUS reporter gene,completely inactive
C#CCNC(=O)Nc1cnns1 [Compound 12],IC50,[1]; [8],17 µM
same,EC50,[2]; [16],15.3 µM
same,EC50,[3]; [12],2.4 µM
COC(=O)CNC(=O)Nc1cnns1 [Compound 9],IC50,[1]; [8],> 100 µM
same,EC50,[2]; [16],> 100 µM
same,EC50,[3]; [12],70 µM
"CC(CO)CCNC(=O)Nc1cnns1 (stereo not drawn) [TD-DHZ, N-(4-hydroxy-3-methyl-butyl)-N′-1,2,3-thiadiazol-5-yl-urea]",IC50,[1]; [8],56 µM
same,EC50,[2]; [16],43 µM
same,times less active than DHZ in tobacco callus assay,[3],10 times
same,EC50,[3]; [12],0.82 µM
